This is an account of results in ChEMBL document CHEMBL1143643, “Synthesis and evaluation of antiplatelet activity of trihydroxychalcone derivatives” (Bioorg Med Chem Lett, 2005).

A word on the IC50: it is the point on the concentration scale where inhibition reaches its midpoint. High values mean a need for much substance, low ones inhibition by little substance.

Test [1] is filed under the species Oryctolagus cuniculus. Put plainly: In vitro inhibitory effects on collagen induced rabbit platelet aggregation upon incubation at 37 degree C for 4 minutes. The class given is functional.
The species entered for test [2] is Oryctolagus cuniculus. Briefly: In vitro inhibitory effects on arachidonic acid induced rabbit platelet aggregation upon incubation at 37 degree C for 4 minutes. The test is classed as functional.

As to `CN(C)c1ccc(/C=C/C(=O)c2c(O)cc(O)cc2O)cc1`, the IC50 in test [1] and in test [2] was greater than 100 µM throughout.

Consider `COc1cc(/C=C/C(=O)c2c(O)cc(O)cc2O)ccc1OCc1ccccc1`, for which the IC50 in test [1] is 37.4 µM; in test [2], 28.5 µM.
